Like-named read-outs stand apart in the source and are kept apart here.
Key:
E. faecalis gelatinase [1] = biological target: T1, E. faecalis gelatinase (Enterococcus faecalis, UniProt Q833V7); format: biochemical; conditions: 6 mU gelatinase, 1 hour
T1 construct: The E. faecalis strain contained gelatinase and supernatants were used directly; made in house; host or cells: Enterococcus faecalis isolate from a chronic venous wound (natural producer); unpurified culture supernatant

P. aeruginosa elastase = conditions: 1 hour; for Inhibition of LL-37 degradation by P. aeruginosa elastase: 12 mU elastase; for Inhibition of LL-37 degradation by P. aeruginosa elastase by sulphated saccharides: 1 μg LL-37, 12 mU elastase, 15 μl 10 mM Tris-buffer
[2] = biological target: T2, S. pyogenes cysteine proteinase (Streptococcus pyogenes, UniProt P0C0J0)
[3] = biological target: T2, S. pyogenes cysteine proteinase; remark: listed apart in the source
Target sequence in this assay (P0C0J0 146-398 limits assumed): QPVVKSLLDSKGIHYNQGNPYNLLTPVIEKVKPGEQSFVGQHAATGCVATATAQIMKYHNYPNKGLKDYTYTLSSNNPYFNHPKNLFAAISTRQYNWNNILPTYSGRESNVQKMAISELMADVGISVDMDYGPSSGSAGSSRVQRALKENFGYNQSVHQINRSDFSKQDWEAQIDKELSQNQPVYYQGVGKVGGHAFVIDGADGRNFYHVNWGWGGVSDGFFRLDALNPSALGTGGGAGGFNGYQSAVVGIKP

LL-37 = biological target: T3, LL-37 (Homo sapiens, UniProt P49913); assay: Slot-binding assay: iodinated dermatan sulphate (DS36) binding to LL-37 on nitrocellulose, competition; conditions: LL-37 0.2-5 μg on nitrocellulose
T3 sequence (P49913 134-170 limits assumed): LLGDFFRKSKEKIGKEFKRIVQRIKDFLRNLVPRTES
Experimental: LL-37 (0.2-5 μg) was applied onto nitrocellulose and incubated with iodinated dermatan sulphate (DS36). Different polysaccharides were added for competition of binding. DS36, DS18, DS13 (dermatan sulphate 36, 18, and 13), CS4 and CS6 (chondroitin sulphate 4 and 6), CS-D (chondroitin sulphate D) and CS-E (chondroitin sulphate E).
LL-37 (0.2-5 μg) was applied onto nitrocellulose and incubated with iodinated dermatan sulphate (DS36). Different cationic substances, as indicated on top of the various panels, were added for competition of binding. (a), p-1-lys; poly-L-lysine, p-1-arg; poly-L-arginine, DEAE; DEAE-dextran, PB; polybrene. (b), CH; chitosan, PEI, polyethyleneimine, PM; protamine, PMX; polymyxin B, PMXnp; polymyxin B nonapeptide.
Radioiodination of DS36 was performed according to previous protocols (F Cheng, K. Yoshida, D. Heinegard, L. Å. Fransson, Glycobiology, 2, 553 (1992)). Slot-binding assays were carried out as follows: α-defensin peptide I (Bachem, Switzerland) was blotted onto nitrocellulose membranes (Hybond, Amersham). Membranes were blocked (PBS, pH 7.4, 0.25% Tween 20, 3% bovine serum albumin) for 1 h and incubated with radiolabelled DS (˜20 μl/ml) for 1 h in the same buffer. Unlabelled polysaccharides were added for competition of binding (2 mg/ml). The membranes were washed (3×10 min) (PBS, pH 7.4, 0.25% Tween 20). Bas 2000 radioimaging system (Fuji) was used for visualization of radioactivity.
LL-37 (0.2-5 μg) was applied onto nitrocellulose and incubated with iodinated dermatan sulphate (DS36). Different polysaccharides were added for competition of binding: DS36, DS18, DS13, CS-4, CS-6, CS-D (chondroitin sulphate D) and CS-E (chondroitin sulphate E). […] Radiolabelled DS was, however, displaced by DS-36, DS18, DS13 and CS-E.
The effects of various cationic molecules on the DS-LL-37 interaction were monitored using slot-blot assays as described in Example 2. DS binding to LL-37 was blocked by poly-L-lysine, poly-L-arginine, DEAE-dextran, polybrene, chitosan and polyethyleneimine.

E. faecalis [4] = assay: Bactericidal assay of LL-37 after incubation with P. aeruginosa elastase; format: cell-based, Enterococcus faecalis; conditions: 0.1 μg LL-37, E. faecalis 2×10^6 cfus/ml, 2 h, 37° C.
E. faecalis gelatinase [5] = biological target: T4, E. faecalis gelatinase (Enterococcus faecalis, UniProt Q833V7); format: biochemical; conditions: 1 μg LL-37, 3 mU, 1 hour and 6 hours
T4 construct: The E. faecalis strain contained gelatinase and supernatants were used directly; made in house; host or cells: Enterococcus faecalis isolate from a chronic venous wound (natural producer); unpurified culture supernatant
T4 sequence (Q833V7 whole entry, looked up): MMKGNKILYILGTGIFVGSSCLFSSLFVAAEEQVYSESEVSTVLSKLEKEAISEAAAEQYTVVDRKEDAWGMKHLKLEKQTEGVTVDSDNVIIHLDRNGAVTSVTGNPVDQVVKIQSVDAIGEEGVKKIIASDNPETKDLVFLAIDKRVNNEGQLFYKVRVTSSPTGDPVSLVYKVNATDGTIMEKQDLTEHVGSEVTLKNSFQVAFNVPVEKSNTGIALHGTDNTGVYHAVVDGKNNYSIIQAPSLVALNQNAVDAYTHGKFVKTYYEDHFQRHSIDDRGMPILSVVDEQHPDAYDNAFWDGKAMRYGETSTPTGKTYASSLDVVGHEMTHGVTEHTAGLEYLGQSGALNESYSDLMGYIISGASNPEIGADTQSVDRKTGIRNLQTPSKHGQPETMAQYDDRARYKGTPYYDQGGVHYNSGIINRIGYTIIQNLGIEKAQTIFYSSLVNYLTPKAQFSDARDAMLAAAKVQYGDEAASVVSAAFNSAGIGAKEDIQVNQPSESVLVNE

α-defensin 1 = biological target: T5, α-defensin 1 (Homo sapiens, UniProt P59665); assay: Slot-binding assay: radioiodinated DS binding to blotted α-defensin 1, competition by unlabelled polysaccharides; conditions: unlabelled polysaccharide 2 mg/ml, ~100-fold excess
T5 construct: purchased Bachem, Switzerland
T5 sequence (P59665 65-94 limits assumed): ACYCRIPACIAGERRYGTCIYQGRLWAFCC
Experimental: 0.2-5 μg α-defensin 1 was blotted onto nitrocellulose and probed with radioiodinated dermatan sulfate (DS).

S. pyogenes = assay: Anti-microbial assay (CFU) with α-defensin 1 with or without GAG chains; conditions: 2 h, 37° C.
Experimental: FIG. 1A illustrates the killing of bacteria by α-defensin. 2×10^6 CFU/ml of S. pyogenes (□) E. faecalis (●) and P. aeruginosa (◯) were incubated with α-defensin at the indicated peptide concentrations for 2 h (S. pyogenes and E. faecalis) or 4 h (P. aeruginosa) at 37° C., and CFU were determined.
For anti-microbial assays S. pyogenes, E. faecalis and P. aeruginosa were grown to mid-log phase in TH-medium. Bacteria were washed and diluted in 10 mM Tris-HCl, pH 7.5, containing 5 mM glucose. 50 μl bacteria (2×10^6 cfu/ml) were incubated with α-defensin at concentrations ranging from 0-40 μg/ml with or without the addition of various GAG chains at concentrations of 2-400 μg/ml. Incubations were carried out at 37° C. for 2 h (S. pyogenes and E. faecalis) or 4 h (P. aeruginosa). To quantitate the microbicidal activity serial dilutions of the incubation mixture were plated on TH agar, incubated at 37° C. over night and the number of CFU were determined.

E. faecalis [6] = assay: as above; conditions: 2 h, 37° C.
P. aeruginosa = assay: as above; format: cell-based, Pseudomonas aeruginosa; conditions: 4 h, 37° C.

## c1cnc2c(c1)ccc1cccnc12 [1,10-phenantroline, reference compound]
E. faecalis gelatinase [1]; inhibitor 2 mM
  Inhibition of LL-37 degradation by E. faecalis gelatinase: Degradation was abolished
P. aeruginosa elastase; inhibitor 2 mM
  Inhibition of LL-37 degradation by P. aeruginosa elastase: Degradation was abolished

## CC(C)C[C@H](NC(=O)[C@H]1O[C@@H]1C(=O)O)C(=O)NCCCCN=C(N)N [E64]
[2]
  Inhibition of LL-37 degradation by S. pyogenes cysteine proteinase: Degradation was abolished
[3]
  Effect on degradation of decorin and high molecular weight proteoglycans by S. pyogenes extracellular products: completely blocked the effect
  Effect on degradation of decorin by S. pyogenes cysteine proteinase: abolished degradation

## CNC(=O)[C@H](Cc1c[nH]c2ccccc12)NC(=O)[C@@H](CC(=O)NO)CC(C)C [GM6001, reference compound]
E. faecalis gelatinase [1]; inhibitor 100 μM
  Inhibition of LL-37 degradation by E. faecalis gelatinase: Degradation was abolished
P. aeruginosa elastase; inhibitor 100 μM
  Inhibition of LL-37 degradation by P. aeruginosa elastase: Degradation was abolished

## O=S(=O)(O)OC[C@H]1O[C@@](COS(=O)(=O)O)(O[C@H]2O[C@H](COS(=O)(=O)O)[C@@H](OS(=O)(=O)O)[C@H](OS(=O)(=O)O)[C@H]2OS(=O)(=O)O)[C@@H](OS(=O)(=O)O)[C@@H]1OS(=O)(=O)O [sucroseoctasulphate]
P. aeruginosa elastase
  Inhibition of LL-37 degradation by P. aeruginosa elastase by sulphated saccharides: inhibited the degradation

## CC(=O)NC1C(O)OC(COS(=O)(=O)O)C(OS(=O)(=O)O)C1OC1OC(C(=O)O)=CC(O)C1OS(=O)(=O)O [ΔUA(2S)-GalNAc(4,6S)]
P. aeruginosa elastase
  Inhibition of LL-37 degradation by P. aeruginosa elastase by sulphated saccharides: inhibited the degradation

## DEAE-dextran
LL-37
  Effect of cationic molecules on DS binding to LL-37: blocked

## LL-37: cationic antimicrobial peptide LL-37 (SEQ ID NO: 1)
E. faecalis [4]
  Bactericidal activity of LL-37 after incubation with P. aeruginosa elastase: inactivated
E. faecalis gelatinase [5]
  Degradation of LL-37 by E. faecalis gelatinase: degradation of LL-37 by bacterial proteinases
[2]
  Degradation of LL-37 by S. pyogenes cysteine proteinase: degradation of LL-37 by bacterial proteinases

## Polymyxin B [reference compound]
LL-37
  Effect of cationic molecules on DS binding to LL-37: did not block the binding

## chitosan
LL-37
  Effect of cationic molecules on DS binding to LL-37: blocked

## dextran
α-defensin 1
  Competition of radiolabelled DS binding to α-defensin 1 by unlabelled polysaccharide: not

## dextran sulfate
α-defensin 1
  Competition of radiolabelled DS binding to α-defensin 1 by unlabelled polysaccharide: displaced the radiolabelled DS

## heparin [reference compound]
α-defensin 1
  Competition of radiolabelled DS binding to α-defensin 1 by unlabelled polysaccharide: displaced the radiolabelled DS

## poly-L-arginine
LL-37
  Effect of cationic molecules on DS binding to LL-37: blocked

## poly-L-lysine
LL-37
  Effect of cationic molecules on DS binding to LL-37: blocked

## polybrene
LL-37
  Effect of cationic molecules on DS binding to LL-37: blocked

## polyethyleneimine
LL-37
  Effect of cationic molecules on DS binding to LL-37: blocked

## polymyxin B nonapeptide [reference compound]
LL-37
  Effect of cationic molecules on DS binding to LL-37: did not block the binding

## protamine [reference compound]
LL-37
  Effect of cationic molecules on DS binding to LL-37: Reduced levels of binding

## α-defensin 1: cationic antimicrobial peptide α-defensin (SEQ ID NO: 2), from Bachem
S. pyogenes
  α-defensin 1 concentration at which bacteria were effectively killed: ≥ 4 µg/mL
E. faecalis [6]
  α-defensin 1 concentration at which bacteria were effectively killed: ≥ 4 µg/mL
P. aeruginosa
  α-defensin 1 concentration at which bacteria were effectively killed: ≥ 4 µg/mL
